The values that follow come from paper PMC10039877 (Scientific Reports, 2023).

Several values for one entry are separate records, joined by “and”; a condition that tells them apart may be missing. Equal values may be shown once.

T1 sequence (P81908 whole entry): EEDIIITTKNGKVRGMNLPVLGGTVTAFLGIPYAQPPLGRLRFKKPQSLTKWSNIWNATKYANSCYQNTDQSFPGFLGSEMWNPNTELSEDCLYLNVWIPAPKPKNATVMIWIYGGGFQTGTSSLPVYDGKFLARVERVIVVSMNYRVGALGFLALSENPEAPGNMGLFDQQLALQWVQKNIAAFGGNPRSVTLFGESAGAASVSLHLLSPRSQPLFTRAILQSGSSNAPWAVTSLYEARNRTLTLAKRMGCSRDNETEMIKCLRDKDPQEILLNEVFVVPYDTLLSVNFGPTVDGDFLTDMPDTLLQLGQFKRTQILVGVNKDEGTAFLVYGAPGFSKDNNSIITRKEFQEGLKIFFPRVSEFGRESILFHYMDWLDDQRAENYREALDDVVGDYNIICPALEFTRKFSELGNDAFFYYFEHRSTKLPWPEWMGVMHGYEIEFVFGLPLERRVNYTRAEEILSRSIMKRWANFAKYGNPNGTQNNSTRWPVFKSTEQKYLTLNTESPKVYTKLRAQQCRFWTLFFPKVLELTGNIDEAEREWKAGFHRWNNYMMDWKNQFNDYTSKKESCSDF

One test has as its target T1, BChE (Equus caballus, UniProt P81908). Description: biochemical. It counts as biochemical. Conditions: BChE: IC50 (μM) ± SEM, in vitro, triplicates.
In the case of `CN(CCOC(=O)Nc1cccc(Cl)c1)C(=O)C(=O)c1c[nH]c2ccccc12` [17d, 2-(2-(1H-indol-3-yl)-N-methyl-2-oxoacetamido)ethyl (3-chlorophenyl)carbamate], the IC50 (commonly the concentration at which inhibition is half-maximal) was above 50 µM.

The compound `Cc1ccccc1NC(=O)OCCN(C)C(=O)C(=O)c1c[nH]c2ccccc12` [17c, 2-(2-(1H-indol-3-yl)-N-methyl-2-oxoacetamido)ethyl o-tolylcarbamate] returned an IC50 above 50 µM.

As to `Cc1cccc(NC(=O)OCCN(C)C(=O)C(=O)c2c[nH]c3ccccc23)c1` [17a, 2-(2-(1H-indol-3-yl)-N-methyl-2-oxoacetamido)ethyl m-tolylcarbamate], the half-maximal inhibitory concentration (IC50) was above 50 µM.

On to `CCc1ccc(NC(=O)OCCN(C)C(=O)C(=O)c2c[nH]c3ccccc23)cc1` [17b, 2-(2-(1H-indol-3-yl)-N-methyl-2-oxoacetamido)ethyl (4-ethylphenyl)carbamate], for which the concentration for half-maximal inhibition (IC50) was above 50 µM.

The test is the same for the next values; noted with them: in vitro, triplicates; read-out: BChE: IC50 (μM) ± SEM.
Regarding `CCCCc1ccc(NC(=O)CNC(=O)C(=O)c2c[nH]c3ccccc23)cc1` [13d, N-(2-((4-butylphenyl)amino)-2-oxoethyl)-2-(1H-indol-3-yl)-2-oxoacetamide], the IC50 was above 50 µM. The same measure, in the same setting: under `COc1ccc(NC(=O)CNC(=O)C(=O)c2c[nH]c3ccccc23)cc1` [13b, 2-(1H-indol-3-yl)-N-(2-((4-methoxyphenyl)amino)-2-oxoethyl)-2-oxoacetamide] stands above 50 µM; under `Cc1cc(C)c(NC(=O)CNC(=O)C(=O)c2c[nH]c3ccccc23)c(C)c1` [13e, 2-(1H-indol-3-yl)-N-(2-(mesitylamino)-2-oxoethyl)-2-oxoacetamide], above 50 µM; under `O=C(CNC(=O)C(=O)c1c[nH]c2ccccc12)Nc1ccccc1F` [13k, N-(2-((2-fluorophenyl)amino)-2-oxoethyl)-2-(1H-indol-3-yl)-2-oxoacetamide], above 50 µM. With `COc1ccc(NC(=O)CNC(=O)C(=O)c2c[nH]c3ccccc23)c(OC)c1` [13i, N-(2-((2,4-dimethoxyphenyl)amino)-2-oxoethyl)-2-(1H-indol-3-yl)-2-oxoacetamide], the IC50 was above 50 µM. Same read-out and setting: for `Cc1cc(C)cc(NC(=O)CNC(=O)C(=O)c2c[nH]c3ccccc23)c1` [13f, N-(2-((3,5-dimethylphenyl)amino)-2-oxoethyl)-2-(1H-indol-3-yl)-2-oxoacetamide] the value was above 50 µM; for `CN(CC(=O)Nc1ccccc1F)C(=O)C(=O)c1c[nH]c2ccccc12` [8a, N-(2-((2-fluorophenyl)amino)-2-oxoethyl)-2-(1H-indol-3-yl)-N-methyl-2-oxoacetamide], above 50 µM; for `COc1ccc(NC(=O)CN(C)C(=O)C(=O)c2c[nH]c3ccccc23)c(C)c1` [8b, 2-(1H-indol-3-yl)-N-(2-((4-methoxy-2-methylphenyl)amino)-2-oxoethyl)-N-methyl-2-oxoacetamide], above 50 µM.

`Cc1ccccc1NC(=O)CNC(=O)C(=O)c1c[nH]c2ccccc12` [13g, 2-(1H-indol-3-yl)-2-oxo-N-(2-oxo-2-(o-tolylamino)ethyl)acetamide]: the IC50 was above 50 µM.

Regarding `Cc1ccc(NC(=O)CNC(=O)C(=O)c2c[nH]c3ccccc23)cc1Cl` [13h, N-(2-((3-chloro-4-methylphenyl)amino)-2-oxoethyl)-2-(1H-indol-3-yl)-2-oxoacetamide], the concentration for half-maximal inhibition (IC50) is above 50 µM.

For the compound `COc1ccccc1NC(=O)CNC(=O)C(=O)c1c[nH]c2ccccc12` [13a, 2-(1H-indol-3-yl)-N-(2-((2-methoxyphenyl)amino)-2-oxoethyl)-2-oxoacetamide], the IC50 was above 50 µM.

For the compound `Cc1cc(C)c(NC(=O)CN(C)C(=O)C(=O)c2c[nH]c3ccccc23)c(C)c1` [8c, 2-(1H-indol-3-yl)-N-(2-(mesitylamino)-2-oxoethyl)-N-methyl-2-oxoacetamide], the 50% inhibitory concentration (IC50) is < 50 µM and 3.95 µM and 3.94 µM. In the case of `COc1cccc(NC(=O)CNC(=O)C(=O)c2c[nH]c3ccccc23)c1` [13j, 2-(1H-indol-3-yl)-N-(2-((3-methoxyphenyl)amino)-2-oxoethyl)-2-oxoacetamide], the half-maximal inhibitory concentration (IC50) is above 50 µM.

`Cc1ccccc1NC(=O)CN(C)C(=O)C(=O)c1c[nH]c2ccccc12` [8d, 2-(1H-indol-3-yl)-N-methyl-2-oxo-N-(2-oxo-2-(o-tolylamino)ethyl)acetamide]: the IC50 is < 50 µM and 19.6 µM. Consider `Cc1ccc(NC(=O)CNC(=O)C(=O)c2c[nH]c3ccccc23)cc1C` [13c, N-(2-((3,4-dimethylphenyl)amino)-2-oxoethyl)-2-(1H-indol-3-yl)-2-oxoacetamide], for which the IC50 was above 50 µM.

Another test has as its target T1, BChE. Put plainly: Enzyme kinetics study (Lineweaver-Burk plots) of 8c on BChE. It counts as biochemical. Conditions: BTCI substrate 0.05 to 0.8 mM, Lineweaver-Burk. As to the method: The inhibition type was determined by analyzing the Lineweaver–Burk plots.
All common chemicals were purchased from commercial sources and used without further purification. The water used was distilled water. Reaction progress was monitored using analytical thin layer chromatography (TLC, detected by UV light 254 nm) on precoated silica gel HSGF254 plates (Qingdao Haiyang Chemical Plant, China). Column chromatography was performed on silica gel (200 ~ 300 mesh; Qingdao Dingkang Chemical Inc.). […] Proton coupling patterns are described as singlet (s), doublet (d), double doublet (dd), triplet (t), and multiplet (m). ESI–MS date were recorded on a Waters Quattro Premier XE triquadrupole mass spectrometer (Waters Corporation, USA), while ESI-HRMS date were recorded on a Q-TOF Priemier mass spectrometer (Micromass, Manchester, UK). The enzyme kinetic assay was performed on an EnSpire Enzyme Marker (Thermos Fisher, USA).
Kinetic studies were performed in same method as described in BChE inhibition assays. The substrate (BTCI) at five concentrations (from 0.05 to 0.8 mM) was determined for 8c at different […] to reveal its inhibition model, and reciprocal plots of 1/V versus 1/[S]. The kinetic parameters and apparent inhibition constants were calculated by the “Enzyme kinetics” module of Prism.
`Cc1cc(C)c(NC(=O)CN(C)C(=O)C(=O)c2c[nH]c3ccccc23)c(C)c1` [8c, 2-(1H-indol-3-yl)-N-(2-(mesitylamino)-2-oxoethyl)-N-methyl-2-oxoacetamide]: the Ki (usually the dissociation constant of the complex between target and ligand, obtained from inhibition or displacement) came out at 3.27 µM; the Vmax was determined as 105.26.

The test is the same for the next values; noted with them: Lineweaver-Burk plot.
Turning to `Cc1cc(C)c(NC(=O)CN(C)C(=O)C(=O)c2c[nH]c3ccccc23)c(C)c1` [8c, 2-(1H-indol-3-yl)-N-(2-(mesitylamino)-2-oxoethyl)-N-methyl-2-oxoacetamide], the inhibition type result is “mixed-type”.

The target of a further test is T1, BChE.
Test: not given
Conditions: in vitro; found in previous study; read-out: BChE IC50 of starting compound; cited from earlier work. On the set-up: method as in PMID 33759552.
For the compound `COc1cccc(NC(=O)CN(C)C(C)C(=O)c2c[nH]c3ccccc23)c1` (stereo not drawn) [compound 970180], the 50% inhibitory concentration (IC50) is 4.24 ± 0.16 µM.

In another test the target is T1, BChE.
Test: not given
Conditions: previous study; cited from earlier work. On the set-up: method as in PMID 33759552.
With `COc1cccc(NC(=O)CN(C)C(C)C(=O)c2c[nH]c3ccccc23)c1` (stereo not drawn) [compound 970180], the inhibition type result is “mixed-type”.
